Source: patent US8153791B2, “Substituted pyrimidinyl oxime kinase inhibitors” (Janssen Pharmaceutica N.V., priority 2005, dated 2012)

What was measured:
[1] = biological target: T1, EGFR (Homo sapiens, UniProt P00533); assay: EGFR Kinase Assay; assay type: biochemical;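 note: recombinant GST-tagged EGFR expressed in Sf9 cells, phosphorylating biotinylated polyGluTyr with γ-33P ATP on Streptavidin Flashplates, 1 h at 30 °C, scintillation counting, inhibition relative to plate maximum and minimum signals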
T1 construct: The intracellular portion of EGFR started at nucleotide 2189 (corresponding to amino acid 667) and ended at the termination codon; made in house; host or cells: Sf9 insect cells (baculovirus)
T1 sequence (P00533 669-1210 limits assumed): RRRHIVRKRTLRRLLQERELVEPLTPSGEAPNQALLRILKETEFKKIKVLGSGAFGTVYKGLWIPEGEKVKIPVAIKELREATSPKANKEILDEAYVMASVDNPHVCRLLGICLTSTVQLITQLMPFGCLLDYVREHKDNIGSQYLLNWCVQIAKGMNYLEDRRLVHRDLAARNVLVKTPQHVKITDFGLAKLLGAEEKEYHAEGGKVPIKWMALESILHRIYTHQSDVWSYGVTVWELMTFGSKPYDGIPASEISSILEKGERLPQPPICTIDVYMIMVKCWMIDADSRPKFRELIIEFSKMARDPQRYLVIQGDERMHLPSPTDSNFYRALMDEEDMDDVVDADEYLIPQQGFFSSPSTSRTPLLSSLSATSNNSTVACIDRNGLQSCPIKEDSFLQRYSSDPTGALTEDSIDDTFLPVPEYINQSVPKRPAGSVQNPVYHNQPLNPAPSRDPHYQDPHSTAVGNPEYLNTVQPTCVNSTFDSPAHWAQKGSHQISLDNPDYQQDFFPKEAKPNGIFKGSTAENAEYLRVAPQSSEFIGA

[2] = biological target: T2, HER-2 (Homo sapiens, UniProt P04626); assay: HER-2 Kinase Assay; assay type: biochemical; settings: read-out: HER2 IC50;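 note: HER2 kinase reaction read by scintillation counting, inhibition scaled between maximum and minimum signals set on each plate, IC50 from inhibition against log concentration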
T2 construct: purchased Proqinase (Freiburg, Germany)
T2 sequence (P04626 679-1255): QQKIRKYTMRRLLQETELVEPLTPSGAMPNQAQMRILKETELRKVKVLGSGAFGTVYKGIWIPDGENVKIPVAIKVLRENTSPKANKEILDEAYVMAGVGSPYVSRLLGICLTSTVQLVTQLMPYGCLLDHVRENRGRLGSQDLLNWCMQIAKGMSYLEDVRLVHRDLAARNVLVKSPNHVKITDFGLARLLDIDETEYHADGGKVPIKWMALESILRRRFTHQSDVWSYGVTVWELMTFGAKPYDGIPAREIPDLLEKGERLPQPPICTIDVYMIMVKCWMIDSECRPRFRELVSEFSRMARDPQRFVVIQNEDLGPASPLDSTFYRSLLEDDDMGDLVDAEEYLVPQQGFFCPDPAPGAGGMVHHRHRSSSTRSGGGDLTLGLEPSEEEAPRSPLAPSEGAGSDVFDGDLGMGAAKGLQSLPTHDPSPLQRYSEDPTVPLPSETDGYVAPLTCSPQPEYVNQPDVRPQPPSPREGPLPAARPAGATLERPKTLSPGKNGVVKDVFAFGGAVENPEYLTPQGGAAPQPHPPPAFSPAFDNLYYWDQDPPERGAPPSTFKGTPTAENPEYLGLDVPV

Row | Structure (SMILES) | IC50 [1] [nM] | IC50 [2] [nM]
1 | CO/N=C/c1c(N)ncnc1Nc1ccc2nn(Cc3cccc(F)c3)cc2c1 [Cpd 5] | 500 | 3700
2 | Nc1ncnc(Nc2ccc3c(cnn3Cc3cccc(F)c3)c2)c1/C=N/OCC(=O)N1CCOCC1 [Cpd 6, (5E)-4-amino-6-[1-(3-fluoro-benzyl)-1H-indazol-5-ylamino]-pyrimidine-5-carbaldehyde O-(2-morpholin-4-yl-2-oxo-ethyl)-oxime] | – | 100
3 | CO/N=C/c1c(N)ncnc1Nc1ccc(Oc2ccccc2)c(OC)c1 [Cpd 7, (5E)-4-amino-6-(3-methoxy-4-phenoxy-phenylamino)-pyrimidine-5-carbaldehyde O-methyl-oxime] | 50 | 100
4 | COc1cc(Nc2ncnc(N)c2/C=N/OCC(=O)N2CCOCC2)ccc1Oc1ccccc1 [Cpd 8, (5E)-4-amino-6-(3-methoxy-4-phenoxy-phenylamino)-pyrimidine-5-carbaldehyde O-(2-morpholin-4-yl-2-oxo-ethyl)-oxime] | – | 700
5 | C=CCO/N=C/c1c(N)ncnc1Nc1ccc2c(cnn2Cc2cccc(F)c2)c1 [Cpd 11, (5E)-4-amino-6-[1-(3-fluoro-benzyl)-1H-indazol-5-ylamino]-pyrimidine-5-carbaldehyde O-allyl-oxime] | 8 | 10
6 | CC(C)(C)O/N=C/c1c(N)ncnc1Nc1ccc2c(cnn2Cc2cccc(F)c2)c1 [Cpd 12, (5E)-4-amino-6-[1-(3-fluoro-benzyl)-1H-indazol-5-ylamino]-pyrimidine-5-carbaldehyde O-tert-butyl-oxime] | 40 | 50
7 | CO/N=C/c1c(N)ncnc1Nc1ccc(Oc2cccnc2)c(C)c1 [Cpd 13, (5E)-4-amino-6-[3-methyl-4-(pyridin-3-yloxy)-phenylamino]-pyrimidine-5-carbaldehyde O-methyl-oxime] | 200 | 100
8 | CCO/N=C/c1c(N)ncnc1N[C@H](C)c1ccccc1 [Cpd 14] | 100 | 3100
9 | CCO/N=C/c1c(N)ncnc1N[C@@H](C)c1ccccc1 [Cpd 16, (5E)-4-amino-6-[(1S)-1-phenyl-ethylamino]-pyrimidine-5-carbaldehyde O-ethyl-oxime] | 10 | 10
10 | CCO/N=C/c1c(N)ncnc1Nc1ccc2[nH]ccc2c1 [Cpd 17, (5E)-4-amino-6-(1H-indol-5-ylamino)-pyrimidine-5-carbaldehyde O-ethyl-oxime] | 20 | 600
11 | CCO/N=C/c1c(N)ncnc1Nc1ccc(OCc2cccc(F)c2)c(Cl)c1 [Cpd 18, (5E)-4-amino-6-[3-chloro-4-(3-fluoro-benzyloxy)-phenylamino)-pyrimidine-5-carbaldehyde O-ethyl-oxime] | 30 | 40
12 | CO/N=C/c1c(N)ncnc1Nc1ccc2c(c1)CCC2 [Cpd 20] | 1200 | 14100
13 | CO/N=C/c1c(N)ncnc1Nc1ccc(OC(F)F)cc1 [Cpd 21] | 1500 | 5300
14 | CO/N=C/c1c(N)ncnc1Nc1ccc2c(c1)OCO2 [Cpd 23] | 1900 | 28500
15 | CO/N=C/c1c(N)ncnc1Nc1ccc(Oc2ccccc2)cc1 [Cpd 24, (5E)-4-amino-6-(4-phenoxy-phenylamino)-pyrimidine-5-carbaldehyde O-methyl-oxime] | 90 | 200
16 | CO/N=C/c1c(N)ncnc1Nc1ccc(OCc2ccccc2)cc1 [Cpd 25, (5E)-4-amino-6-(4-benzyloxy-phenylamino)-pyrimidine-5-carbaldehyde O-methyl-oxime] | 30 | 300
17 | CO/N=C/c1c(N)ncnc1Nc1cccc(OCc2ccccc2)c1 [Cpd 28] | 900 | 5500
18 | CO/N=C/c1c(N)ncnc1Nc1ccc(Oc2ccc(C)nc2)c(C)c1 [Cpd 29, (5E)-4-amino-6-[3-methyl-4-(6-methyl-pyridin-3-yloxy)-phenylamino]-pyrimidine-5-carbaldehyde O-methyl-oxime] | 200 | 200
19 | Nc1ncnc(Nc2ccc3c(cnn3Cc3cccc(F)c3)c2)c1/C=N/OCCOc1ccccc1 [Cpd 31, (5E)-4-amino-6-[1-(3-fluoro-benzyl)-1H-indazol-5-ylamino]-pyrimidine-5-carbaldehyde O-(2-phenoxy-ethyl)-oxime] | 20 | 300
20 | CO/N=C/c1c(N)ncnc1Nc1ccc(OCc2ccccn2)c(Cl)c1 [Cpd 32, (5E)-4-amino-6-[3-chloro-4-(pyridin-2-ylmethoxy)-phenylamino]-pyrimidine-5-carbaldehyde O-methyl-oxime] | 10 | 90
21 | CCO/N=C/c1c(N)ncnc1Nc1ccc2c(ccn2Cc2cccc(F)c2)c1 [Cpd 33, (5E)-4-amino-6-[1-(3-fluoro-benzyl)-1H-indol-5-ylamino]-pyrimidine-5-carbaldehyde O-ethyl-oxime] | 20 | 100
22 | CCO/N=C/c1c(N)ncnc1Nc1ccc(OCc2ccccc2)c(Cl)c1 [Cpd 37, (5E)-4-amino-6-(4-benzyloxy-3-chloro-phenylamino)-pyrimidine-5-carbaldehyde O-ethyl-oxime] | 20 | 90

Row | Structure (SMILES) | IC50 [1] [nM] | IC50 [2] [nM]
23 | CO/N=C/c1c(N)ncnc1Nc1ccc(Oc2cccnc2)c(Cl)c1 [Cpd 38, (5E)-4-amino-6-[3-chloro-4-(pyridin-3-yloxy)-phenylamino]-pyrimidine-5-carbaldehyde O-methyl-oxime] | 100 | 50
24 | CNc1ncnc(Nc2ccc(OCc3cccc(F)c3)c(Cl)c2)c1C=NOC [Cpd 39, 4-[3-Chloro-4-(3-fluoro-benzyloxy)-phenylamino]-6-methylamino-pyrimidine-5-carbaldehyde O-methyl-oxime] | – | 14800
25 | CCNc1ncnc(Nc2ccc3c(cnn3Cc3cccc(F)c3)c2)c1/C=N/OC [Cpd 40, (5E)-4-ethylamino-6-[1-(3-fluoro-benzyl)-1H-indazol-5-ylamino]-pyrimidine-5-carbaldehyde O-methyl-oxime] | – | 10600
26 | CCNc1ncnc(Nc2ccc3c(cnn3Cc3cccc(F)c3)c2)c1/C=N/OCC [Cpd 41, (5E)-4-ethylamino-6-[1-(3-fluoro-benzyl)-1H-indazol-5-ylamino]-pyrimidine-5-carbaldehyde O-ethyl-oxime] | 400 | 3600
27 | CCNc1ncnc(Nc2ccc(OCc3cccc(F)c3)c(Cl)c2)c1/C=N/OC [Cpd 42, (5E)-4-[3-chloro-4-(3-fluoro-benzyloxy)-phenylamino]-6-ethylamino-pyrimidine-5-carbaldehyde O-methyl-oxime] | 7800 | –
28 | CCNc1ncnc(Nc2ccc(OCc3cccc(F)c3)c(Cl)c2)c1/C=N/OCC [Cpd 43, (5E)-4-[3-chloro-4-(3-fluoro-benzyloxy)-phenylamino]-6-ethylamino-pyrimidine-5-carbaldehyde O-ethyl-oxime] | 1400 | 10400
29 | COc1ccc(CO/N=C/c2c(N)ncnc2Nc2ccc3c(cnn3Cc3cccc(F)c3)c2)cc1 [Cpd 44, (5E)-4-amino-6-[1-(3-fluoro-benzyl)-1H-indazol-5-ylamino]-pyrimidine-5-carbaldehyde O-(4-methoxy-benzyl)-oxime] | 70 | 1600
30 | CCO/N=C/c1c(N)ncnc1Nc1ccc2c(cnn2Cc2ccccc2)c1 [Cpd 49, (5E)-4-amino-6-(1-benzyl-1H-indazol-5-ylamino)-pyrimidine-5-carbaldehyde O-ethyl-oxime] | 30 | 10
31 | CCO/N=C/c1c(N)ncnc1Nc1ccc2c(cnn2Cc2cccc(C#N)c2)c1 [Cpd 51, 3-{5-[6-amino-(5E)-5-(ethoxyimino-methyl)-pyrimidin-4-ylamino]-indazol-1-ylmethyl}-benzonitrile] | 40 | 40
32 | CCO/N=C/c1c(N)ncnc1Nc1ccc2nn(Cc3ccccc3)cc2c1 [Cpd 52] | – | 4500
33 | CCO/N=C/c1c(N)ncnc1Nc1ccc2c(cnn2Cc2cccc(Cl)c2)c1 [Cpd 55, (5E)-4-amino-6-[1-(3-chloro-benzyl)-1H-indazol-5-ylamino]-pyrimidine-5-carbaldehyde O-ethyl-oxime] | 40 | 30
34 | CCO/N=C/c1c(N)ncnc1Nc1ccc2c(cnn2Cc2cccc(OC)c2)c1 [Cpd 57] | 200 | –
35 | CCO/N=C/c1c(N)ncnc1Nc1ccc2[nH]c(Cc3cccc(F)c3)nc2c1 [Cpd 58, (5E)-4-amino-6-[2-(3-fluoro-benzyl)-1H-benzoimidazol-5-ylamino]-pyrimidine-5-carbaldehyde O-ethyl-oxime] | 30 | –
36 | CO/N=C/c1c(N)ncnc1Nc1cccc(Cl)c1 [Cpd 59, (5E)-4-amino-6-(3-chloro-phenylamino)-pyrimidine-5-carbaldehyde O-methyl-oxime] | 50 | –
37 | CO/N=C/c1c(N)ncnc1Nc1ccc(OCc2cccc(F)c2)c(OC)c1 [Cpd 61] | 200 | –
38 | CCO/N=C/c1c(N)ncnc1Nc1ccc(OCc2cccc(F)c2)c(OC)c1 [Cpd 62] | 200 | –
39 | CO/N=C/c1c(N)ncnc1Nc1ccc(OC)c(Cl)c1 [Cpd 63] | 1200 | 1000
40 | Nc1ncnc(Nc2ccc3c(cnn3Cc3cccc(F)c3)c2)c1/C=N/Oc1ccccc1 [Cpd 65, (5E)-4-amino-6-[1-(3-fluoro-benzyl)-1H-indazol-5-ylamino]-pyrimidine-5-carbaldehyde O-phenyl-oxime] | 40 | 200
41 | CO/N=C/c1c(N)ncnc1Nc1ccc2oc(Cc3ccccc3)cc2c1 [Cpd 73] | – | 2900
42 | Nc1ncnc(NCc2ccc3c(c2)OCO3)c1C=NCc1ccc2c(c1)OCO2 [Cpd 119, N-benzo[1,3]dioxol-5-ylmethyl-5-[(benzo[1,3]dioxol-5-ylmethylimino)-methyl]-pyrimidine-4,6-diamine] | – | > 10000
43 | CON=Cc1c(N)ncnc1NCc1ccc2c(c1)OCO2 [Cpd 121, 4-amino-6-[(benzo[1,3]dioxol-5-ylmethyl)-amino]-pyrimidine-5-carbaldehyde O-methyl-oxime] | – | > 10000
